Assay results taken from article PMC7906094 (Cancer chemotherapy and pharmacology, 2020).
Each block holds one compound with its values, some of them ahead of it.

Tests used:
CYP2C9 = settings: microsomes; cited from earlier work
CYP = assay: Triapine metabolism in human liver microsomes, pH 7.4; assay type: in vitro ADME; settings: human, human liver microsomes fortified with NADPH, pH 7.4
[1] = system: human liver microsomes (CYP); assay: as above; assay type: in vitro ADME
[2] = system: human liver microsomes (FMO); assay: Triapine metabolism in human liver microsomes, pH 8.4; assay type: in vitro ADME
[3] = system: human liver microsomal glucuronyltransferases; assay: Triapine metabolism by glucuronosyltransferases in human liver microsomes; assay type: in vitro ADME; settings: human liver microsomes + UDPGA, 120-minute incubation
[4] = system: aldehyde oxidase (AO) and xanthine oxidase (XO); assay: Triapine metabolism in human liver cytosol with high AO/XO activity; assay type: in vitro ADME; settings: 90-minute incubation, human liver cytosol enriched in AO/XO, presence or absence of raloxifene and allopurinol
[5] = system: monoamine oxidases (MAO)-A/B; assay: Triapine metabolism in human liver mitochondria; assay type: in vitro ADME; settings: presence or absence of MAO-A and B inhibitors
[6] = system: primary human hepatocytes; assay: Triapine metabolism in human hepatocytes with enzyme inhibitors; assay type: in vitro ADME; settings: in the presence of non-isoform specific CYP inhibitor N-benzyl imidazole
CYP2C19 = CYP2C19 (Homo sapiens, UniProt P33261); assay type: in vitro ADME; settings: triapine 6 μM, human liver microsomes
[7] = cited from earlier work
[8] = human, primary human hepatocytes
[9] = system: primary human hepatocytes; settings: human hepatocytes, tenofovir 0.5 μM, emtricitabine 7.2 μM; for impact of co-incubation on triapine half-life: triapine 6 μM
CYP3A5 = settings: cited from earlier work
CYP3A4 [10] = settings: cited from earlier work
CYP3A4 [11] = settings: cited from earlier work; remark: listed apart in the source
CYP3A4 [12] = settings: cited from earlier work; remark: listed apart in the source

CYP2C19, sequence (P33261 whole entry): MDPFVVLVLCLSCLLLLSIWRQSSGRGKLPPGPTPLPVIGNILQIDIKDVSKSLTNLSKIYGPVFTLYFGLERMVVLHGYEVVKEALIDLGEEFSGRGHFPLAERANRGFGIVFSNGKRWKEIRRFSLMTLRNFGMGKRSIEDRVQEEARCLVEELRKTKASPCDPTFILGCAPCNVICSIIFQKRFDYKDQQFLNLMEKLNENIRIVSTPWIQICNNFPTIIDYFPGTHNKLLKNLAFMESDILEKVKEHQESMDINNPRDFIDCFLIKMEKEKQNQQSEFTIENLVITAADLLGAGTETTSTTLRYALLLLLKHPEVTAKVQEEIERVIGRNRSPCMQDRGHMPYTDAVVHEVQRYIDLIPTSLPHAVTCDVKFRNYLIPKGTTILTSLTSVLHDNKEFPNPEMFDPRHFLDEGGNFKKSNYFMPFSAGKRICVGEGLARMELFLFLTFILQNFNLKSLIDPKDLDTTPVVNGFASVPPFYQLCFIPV

SMILES: CC(C)=O [acetone]
stimulation of CYP2C9 mediated tolbutamide hydroxylation (CYP2C9): 2–3 fold

half-life at 6 μM (CYP): ~3 h
depletion of triapine ([1]; NADPH-fortified human liver microsomes pH 7.4 in the presence of CYP non-specific inhibitor N-benzyl imidazole (1 mM)): Minimal depletion
triapine remaining intact ([1]; control incubation without either NADPH or microsomes, after 2 h): > 95%
triapine disappeared ([2]; human liver microsomes, phosphate buffer pH 8.4, fortified with NADPH, within 2 h): 17%
depletion of triapine ([2]; pH 8.4, control incubation without NADPH): 9%
depletion of triapine ([2]; pH 8.4, in the presence of FMO inhibitor methimazole (200 μM)): 9%
triapine remaining [3]: 100.3%
metabolism of triapine [4]: did not undergo metabolism
triapine depletion [5]: no triapine depletion
triapine metabolism in hepatocytes [6]: inhibited
increase of metabolism of CYP2C19 probe S-mephenytoin (CYP2C19): 20%
half-life at 6 μM [8]: 8 h
SMILES: NC(=S)NN=Cc1ncccc1N [Triapine, 3-aminopyridine-2-carboxaldehyde thiosemicarbazone]
Cmax ([7]; after intravenous or oral dosing): ~5 µM
total body clearance ([7]; humans, intravenous administration): 57.5 ± 25 L/h
time to reach Cmax ([7]; humans, oral administration): 1.9 ± 1.4 h
urinary excretion ([7]; humans): minimal

impact of co-incubation on %triapine remaining after 48 hours [9]: not significantly different
impact of co-incubation on triapine AUC0–48h [9]: not significantly different
impact of co-incubation on triapine half-life [9]: not impacted
SMILES: Nc1nc(=O)n([C@@H]2CS[C@H](CO)O2)cc1F [emtricitabine]

SMILES: CCN(CC)CCNC(=O)c1c(C)[nH]c(/C=C2\C(=O)Nc3ccc(F)cc32)c1C [sunitinib]
effect on midazolam 1'-hydroxylation by CYP3A5 (CYP3A5): activated
effect on midazolam 1'-hydroxylation by CYP3A4 (CYP3A4 [10]): inhibited

SMILES: O=C(O)CC(O)(CC(=O)O)C(=O)O [citrate]
effect on CYP3A4 catalytic activity (CYP3A4 [11]): stimulated

SMILES: CNC(=O)c1cc(Oc2ccc(NC(=O)Nc3ccc(Cl)c(C(F)(F)F)c3)cc2)ccn1 [Sorafenib]
effect on midazolam 1'-hydroxylation by CYP3A5 (CYP3A5): activated
effect on midazolam 1'-hydroxylation by CYP3A4 (CYP3A4 [10]): inhibited

SMILES: CC#N [acetonitrile]
stimulation of CYP2C9 mediated tolbutamide hydroxylation (CYP2C9): 2–3 fold

impact of co-incubation on %triapine remaining after 48 hours [9]: not significantly different
impact of co-incubation on triapine AUC0–48h [9]: not significantly different
impact of co-incubation on triapine half-life [9]: not impacted
SMILES: C[C@H](Cn1cnc2c(N)ncnc21)OCP(=O)(O)O [tenofovir]

SMILES: C=C[C@H]1C[N@@]2CC[C@H]1C[C@@H]2[C@@H](O)c1ccnc2ccc(OC)cc12 [quinidine]
increase of CYP3A4 Vmax for R-warfarin 10-hydroxylation (CYP3A4 [12]): 5 fold
increase of CYP3A4 Vmax for S-warfarin 4'-hydroxylation (CYP3A4 [12]): 2.5 fold
increase of CYP3A4 mediated 5-, 5'-, and 10-hydroxylation of diclofenac, piroxicam and R-warfarin (CYP3A4 [12]): 5–7 fold
